According to article PMC9750858, “Rapid biosensor development using plant hormone receptors as reprogrammable scaffolds” (Nature Biotechnology, 2022):
Positions count from the first letter of the chain named. Where “and” joins values, the source holds several entries; their conditions need not be identical. Identical values can stand only once.

Columns and labels:
PYR1^WIN-M = target: T1, PYR1^WIN-M (Arabidopsis thaliana, UniProt O49686, A160I/D26G/E4G/F159A/H60P/K59Q/N90S/Y23H); experiment: ELISA-like plate assay, immobilized PYR1^WIN-M, biotinylated ΔN-HAB1^T+; assay type: binding; conditions: for ELISA signal generation, receptor cross-reactivity (source data): replicates, 212
T1 construct: made in house
T1 sequence (O49686 with tags, fused parts or gaps E4G/Y23H/D26G/K59Q/H60P/N90S/F159A/A160I): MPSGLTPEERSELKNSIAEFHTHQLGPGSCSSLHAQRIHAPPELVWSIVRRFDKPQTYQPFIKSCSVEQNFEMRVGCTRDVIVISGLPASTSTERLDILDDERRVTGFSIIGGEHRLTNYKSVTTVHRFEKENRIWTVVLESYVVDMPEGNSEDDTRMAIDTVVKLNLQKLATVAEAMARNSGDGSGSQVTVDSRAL

PYR1^WIN / ΔN-HAB1 = target: T2, PYR1^WIN / ΔN-HAB1 (Arabidopsis thaliana, UniProt O49686, A160I/D26G/E4G/F159A/K59Q/Y23H); experiment: Ligand/receptor-mediated PP2C (ΔN-HAB1 phosphatase) inhibition, fluorogenic substrate, PYR1^WIN; assay type: biochemical
T2 construct: 6xHis (N); made in house; host or cells: E. coli BL21 (DE3) pLysS
T2 sequence (O49686 with tags, fused parts or gaps E4G/Y23H/D26G/K59Q/F159A/A160I): T1 sequence (O49686 with tags, fused parts or gaps E4G/Y23H/D26G/K59Q/H60P/N90S/F159A/A160I) with P60H, S90N
Procedure: Coding sequences of the cannabinoid sensors were cloned into the protein expression vector pET28a to encode 6×His-tag-receptor fusions. Constructs were sequenced and transformed into the BL21 (DE3) pLysS E. coli strain for heterologous expression with IPTG (1 mM), followed by purification, using affinity chromatography, as previously reported. In vitro validation of evolved sensors was performed by using recombinant sensors and ΔN-HAB1 (HAB1 Δ1–178, ref. [36]) proteins, as previously described. […] Cannabinoid concentration curves ranged from 4 to 10,000 nM, and median inhibitory concentrations for PP2C inhibition were obtained via fluorescent measurement in the presence of 1 mM 4-methylumbelliferyl phosphate.

PYR1^WIN [1] = target: T3, PYR1^WIN (Arabidopsis thaliana, UniProt O49686, A160I/D26G/E4G/F159A/K59Q/Y23H); experiment: Split NanoLuc luciferase complementation in yeast, NLuc^N-PYR1^WIN/NLuc^C-ΔN-HAB1; assay type: cell-based; design: >PYR1-WIN; expressed in transfected cells; host or cells: Saccharomyces cerevisiae; conditions: for LUM, split luciferase luminescence (Fig. 3c source data): replicates
PYR1^WIN [2] = target: T3, PYR1^WIN; experiment: Yeast transcriptional activation circuit Z4-PYR1/VP64-ΔN-HAB1, GFP reporter, PYR1^WIN; conditions: for whole-cell GFP fluorescence (Fig. 3b source data): 12 h, replicates
[3] = tested on: PYR1-derived cannabinoid receptors (PYR1 mutants) binding HAB1

T3 sequence (Q9CAJ0 179-511): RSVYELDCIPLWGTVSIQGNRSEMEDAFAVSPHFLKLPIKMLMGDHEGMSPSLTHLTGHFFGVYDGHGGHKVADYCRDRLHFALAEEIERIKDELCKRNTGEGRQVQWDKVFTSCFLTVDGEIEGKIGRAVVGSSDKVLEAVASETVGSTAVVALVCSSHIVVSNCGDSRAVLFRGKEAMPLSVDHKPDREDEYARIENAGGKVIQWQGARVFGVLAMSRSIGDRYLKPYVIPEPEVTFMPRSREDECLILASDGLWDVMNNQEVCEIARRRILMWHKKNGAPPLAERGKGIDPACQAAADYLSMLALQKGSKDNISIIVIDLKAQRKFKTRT
T3 sequence (O49686 other isoform, or with tags, fused parts or gaps E4G/Y23H/D26G/K59Q/F159A/A160I): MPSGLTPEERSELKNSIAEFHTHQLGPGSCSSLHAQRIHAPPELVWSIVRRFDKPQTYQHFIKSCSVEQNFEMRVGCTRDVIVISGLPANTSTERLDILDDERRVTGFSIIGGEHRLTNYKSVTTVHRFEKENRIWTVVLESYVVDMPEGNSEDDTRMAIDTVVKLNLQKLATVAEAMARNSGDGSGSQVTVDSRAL

SMILES: Cc1c(C(=O)c2cccc3ccccc23)c2cccc3c2n1C(CN1CCOCC1)CO3 (single isomer, unassigned; (+)) [WIN, (+)-WIN 55,212-2]
- ELISA signal generation, receptor cross-reactivity (source data) (PYR1^WIN-M; cannabinoid at 2 nM): 1.487 and 1.277 and 1.151
- ELISA signal generation, receptor cross-reactivity (source data) (PYR1^WIN-M; cannabinoid at 2 μM): 3.378 and 3.384 and 3.484
- ELISA absorbance signal (source data) (PYR1^WIN-M; saline, ligand 1e-6 uM): 0.133 and 0.126 and 0.127
- ELISA absorbance signal (source data) (PYR1^WIN-M; saline, ligand 1e-5 uM): 0.152 and 0.136 and 0.148
- ELISA absorbance signal (source data) (PYR1^WIN-M; saline, ligand 0.0001 uM): 0.162 and 0.157 and 0.179
- ELISA absorbance signal (source data) (PYR1^WIN-M; saline, ligand 0.001 uM): 0.26 and 0.252 and 0.274
- ELISA absorbance signal (source data) (PYR1^WIN-M; saline, ligand 0.01 uM): 0.302 and 0.321 and 0.336
- ELISA absorbance signal (source data) (PYR1^WIN-M; saline, ligand 0.1 uM): 0.327 and 0.325
- ELISA absorbance signal (source data) (PYR1^WIN-M; saline, ligand 1 uM): 0.315 and 0.35 and 0.349
- ELISA absorbance signal (source data) (PYR1^WIN-M; saline, ligand 10 uM): 0.341 and 0.349 and 0.35
- ELISA absorbance signal (source data) (PYR1^WIN-M; saliva, ligand 1e-6 uM): 0.097 and 0.09 and 0.095
- ELISA absorbance signal (source data) (PYR1^WIN-M; saliva, ligand 1e-5 uM): 0.096 and 0.098
- ELISA absorbance signal (source data) (PYR1^WIN-M; saliva, ligand 0.0001 uM): 0.124 and 0.126 and 0.123
- ELISA absorbance signal (source data) (PYR1^WIN-M; saliva, ligand 0.001 uM): 0.239 and 0.257 and 0.242
- ELISA absorbance signal (source data) (PYR1^WIN-M; saliva, ligand 0.01 uM): 0.374 and 0.38 and 0.358
- ELISA absorbance signal (source data) (PYR1^WIN-M; saliva, ligand 0.1 uM): 0.397 and 0.408 and 0.382
- ELISA absorbance signal (source data) (PYR1^WIN-M; saliva, ligand 1 uM): 0.436 and 0.42 and 0.431
- ELISA absorbance signal (source data) (PYR1^WIN-M; serum, ligand 1e-6 uM): 0.103 and 0.1 and 0.092
- ELISA absorbance signal (source data) (PYR1^WIN-M; serum, ligand 1e-5 uM): 0.098 and 0.102
- ELISA absorbance signal (source data) (PYR1^WIN-M; serum, ligand 0.0001 uM): 0.108 and 0.106 and 0.1
- ELISA absorbance signal (source data) (PYR1^WIN-M; serum, ligand 0.001 uM): 0.141 and 0.195 and 0.127
- ELISA absorbance signal (source data) (PYR1^WIN-M; serum, ligand 0.01 uM): 0.239 and 0.24
- ELISA absorbance signal (source data) (PYR1^WIN-M; serum, ligand 0.1 uM): 0.319 and 0.268 and 0.325
- ELISA absorbance signal (source data) (PYR1^WIN-M; serum, ligand 1 uM): 0.312 and 0.316 and 0.329
- ELISA absorbance signal (source data) (PYR1^WIN-M; urine, ligand 1e-6 uM): 0.141 and 0.142 and 0.134
- ELISA absorbance signal (source data) (PYR1^WIN-M; urine, ligand 1e-5 uM): 0.148 and 0.138
- ELISA absorbance signal (source data) (PYR1^WIN-M; urine, ligand 0.0001 uM): 0.162 and 0.161 and 0.149
- ELISA absorbance signal (source data) (PYR1^WIN-M; urine, ligand 0.001 uM): 0.248 and 0.231 and 0.225
- ELISA absorbance signal (source data) (PYR1^WIN-M; urine, ligand 0.01 uM): 0.338 and 0.33 and 0.313
- ELISA absorbance signal (source data) (PYR1^WIN-M; urine, ligand 0.1 uM): 0.356 and 0.348 and 0.341
- ELISA absorbance signal (source data) (PYR1^WIN-M; urine, ligand 1 uM): 0.387 and 0.372 and 0.376
- EC50 (PYR1^WIN / ΔN-HAB1): 72 nM
- inhibition of ΔN-HAB1 phosphatase activity relative to mock (Fig. 3a source data) (PYR1^WIN / ΔN-HAB1; [Ligand] 0.004115 uM, replicates, 0.004115 µM): -0.3447 and 3.327 and 8.558
- inhibition of ΔN-HAB1 phosphatase activity relative to mock (Fig. 3a source data) (PYR1^WIN / ΔN-HAB1; [Ligand] 0.012346 uM, replicates, 0.012346 µM): 13.6846 and 17.5801
- inhibition at 0.012346 µM (PYR1^WIN / ΔN-HAB1; [Ligand] 0.012346 uM, replicates, read-out: inhibition of ΔN-HAB1 phosphatase activity relative to mock (Fig. 3a source data)): 13.7%
- inhibition of ΔN-HAB1 phosphatase activity relative to mock (Fig. 3a source data) (PYR1^WIN / ΔN-HAB1; [Ligand] 0.037037 uM, replicates, 0.037037 µM): 27.3559 and 29.1117
- inhibition at 0.037037 µM (PYR1^WIN / ΔN-HAB1; [Ligand] 0.037037 uM, replicates, read-out: inhibition of ΔN-HAB1 phosphatase activity relative to mock (Fig. 3a source data)): 28.7%
- inhibition of ΔN-HAB1 phosphatase activity relative to mock (Fig. 3a source data) (PYR1^WIN / ΔN-HAB1; [Ligand] 0.111111 uM, replicates, 0.111111 µM): 63.5233 and 58.9433
- inhibition at 0.111111 µM (PYR1^WIN / ΔN-HAB1; [Ligand] 0.111111 uM, replicates, read-out: inhibition of ΔN-HAB1 phosphatase activity relative to mock (Fig. 3a source data)): 61.1%
- inhibition of ΔN-HAB1 phosphatase activity relative to mock (Fig. 3a source data) (PYR1^WIN / ΔN-HAB1; [Ligand] 0.333333 uM, replicates, 0.333333 µM): 83.1534 and 83.7629
- inhibition at 0.333333 µM (PYR1^WIN / ΔN-HAB1; [Ligand] 0.333333 uM, replicates, read-out: inhibition of ΔN-HAB1 phosphatase activity relative to mock (Fig. 3a source data)): 84.4%
- inhibition of ΔN-HAB1 phosphatase activity relative to mock (Fig. 3a source data) (PYR1^WIN / ΔN-HAB1; [Ligand] 1 uM, replicates, 1 µM): 93.2666 and 92.7582
- inhibition at 1 µM (PYR1^WIN / ΔN-HAB1; [Ligand] 1 uM, replicates, read-out: inhibition of ΔN-HAB1 phosphatase activity relative to mock (Fig. 3a source data)): 93.4%
- inhibition of ΔN-HAB1 phosphatase activity relative to mock (Fig. 3a source data) (PYR1^WIN / ΔN-HAB1; [Ligand] 10 uM, replicates, 10 µM): 93.1102 and 92.715
- inhibition at 10 µM (PYR1^WIN / ΔN-HAB1; [Ligand] 10 uM, replicates, read-out: inhibition of ΔN-HAB1 phosphatase activity relative to mock (Fig. 3a source data)): 97.6%
- EC50 (PYR1^WIN [1]): 56 nM
- LUM, split luciferase luminescence (Fig. 3c source data) (PYR1^WIN [1]; [Ligand] 0.0001 uM): 4.094 and 3.848 and 3.642
- LUM, split luciferase luminescence (Fig. 3c source data) (PYR1^WIN [1]; [Ligand] 0.001 uM): 4.593 and 4.28 and 4.174
- LUM, split luciferase luminescence (Fig. 3c source data) (PYR1^WIN [1]; [Ligand] 0.01 uM): 5.448 and 5.829 and 5.793
- LUM, split luciferase luminescence (Fig. 3c source data) (PYR1^WIN [1]; [Ligand] 0.1 uM): 9.293 and 8.992 and 7.439
- LUM, split luciferase luminescence (Fig. 3c source data) (PYR1^WIN [1]; [Ligand] 1 uM): 12.392 and 10.463 and 10.193
- LUM, split luciferase luminescence (Fig. 3c source data) (PYR1^WIN [1]; [Ligand] 10 uM): 13.953 and 10.293 (2×)
- EC50 (PYR1^WIN [2]): 28 nM
- whole-cell GFP fluorescence (Fig. 3b source data) (PYR1^WIN [2]; [Ligand] 0.0001 uM): 1.509 and 1.618 and 1.562
- whole-cell GFP fluorescence (Fig. 3b source data) (PYR1^WIN [2]; [Ligand] 0.001 uM): 1.581 and 1.833 and 1.779
- whole-cell GFP fluorescence (Fig. 3b source data) (PYR1^WIN [2]; [Ligand] 0.01 uM): 2.798 and 2.733 and 2.756
- whole-cell GFP fluorescence (Fig. 3b source data) (PYR1^WIN [2]; [Ligand] 0.1 uM): 4.085 and 3.967 and 4.046
- whole-cell GFP fluorescence (Fig. 3b source data) (PYR1^WIN [2]; [Ligand] 0.5 uM): 4.169 and 4.494 and 4.506
- whole-cell GFP fluorescence (Fig. 3b source data) (PYR1^WIN [2]; [Ligand] 1 uM): 4.972 and 4.595 and 4.6223
- whole-cell GFP fluorescence (Fig. 3b source data) (PYR1^WIN [2]; [Ligand] 5 uM): 4.959 and 4.89 and 5.277
- whole-cell GFP fluorescence (Fig. 3b source data) (PYR1^WIN [2]; [Ligand] 10 uM): 5.105 and 5.0049 and 4.874
- whole-cell GFP fluorescence (Fig. 3b source data) (PYR1^WIN [2]; [Ligand] 100 uM): 4.986 and 5.066 and 4.884
- cannabinoid concentration to which CB-S1 library clones respond (as low as) ([3]; clones from shuffled library CB-S1): 50 nM
- stereoisomer recognized by the evolved WIN receptor ([3]; selections conducted using a racemate): recognizes the biologically active (+)-WIN 55,212-2 stereoisomer
